Reference: patent US12227487B1, “Acyloxy substituted phenyl dithiane derivatives” (Renovel Innovations, Inc, priority 2021, dated 2025)

How the values were obtained:
TNF-α = TNF-α level in Lipopolysaccharide (LPS) treated mice; type: in vivo; settings: compared to the control Lipopolysaccharide (LPS) group
IL-6 = IL-6 level in LPS treated mice; type: in vivo; settings: compared to the control LPS group
COX-1 enzyme = COX-1 enzyme (Homo sapiens, UniProt P23219); test: COX-1 enzyme inhibition; type: biochemical; settings: FIG. 3A
COX-2 enzyme = target: T1, COX-2 enzyme (Homo sapiens, UniProt P35354); test: COX-2 enzyme inhibition; type: biochemical; settings: FIG. 3A
T1 sequence (P35354 18-604): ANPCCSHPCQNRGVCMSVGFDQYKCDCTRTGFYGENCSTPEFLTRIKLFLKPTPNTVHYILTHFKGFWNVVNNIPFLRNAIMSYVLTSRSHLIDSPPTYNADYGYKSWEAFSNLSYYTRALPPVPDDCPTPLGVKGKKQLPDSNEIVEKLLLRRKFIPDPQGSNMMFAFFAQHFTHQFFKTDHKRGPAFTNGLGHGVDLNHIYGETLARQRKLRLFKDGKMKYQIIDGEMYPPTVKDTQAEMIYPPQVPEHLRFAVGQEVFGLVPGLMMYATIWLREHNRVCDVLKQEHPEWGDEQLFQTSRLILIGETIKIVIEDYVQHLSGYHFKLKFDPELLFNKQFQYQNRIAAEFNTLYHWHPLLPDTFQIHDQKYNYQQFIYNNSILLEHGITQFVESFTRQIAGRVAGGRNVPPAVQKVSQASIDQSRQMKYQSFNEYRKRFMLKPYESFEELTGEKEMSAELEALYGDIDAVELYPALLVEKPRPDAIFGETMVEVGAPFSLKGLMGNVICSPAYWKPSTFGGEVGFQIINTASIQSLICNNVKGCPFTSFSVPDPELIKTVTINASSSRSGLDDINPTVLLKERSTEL

mice = test: Disease Activity Index in DSS mice, 21 day study; type: in vivo; settings: end of study period of 21 days, compared with the vehicle DSS group, P<0.04

COX-1 enzyme, sequence (P23219 24-599): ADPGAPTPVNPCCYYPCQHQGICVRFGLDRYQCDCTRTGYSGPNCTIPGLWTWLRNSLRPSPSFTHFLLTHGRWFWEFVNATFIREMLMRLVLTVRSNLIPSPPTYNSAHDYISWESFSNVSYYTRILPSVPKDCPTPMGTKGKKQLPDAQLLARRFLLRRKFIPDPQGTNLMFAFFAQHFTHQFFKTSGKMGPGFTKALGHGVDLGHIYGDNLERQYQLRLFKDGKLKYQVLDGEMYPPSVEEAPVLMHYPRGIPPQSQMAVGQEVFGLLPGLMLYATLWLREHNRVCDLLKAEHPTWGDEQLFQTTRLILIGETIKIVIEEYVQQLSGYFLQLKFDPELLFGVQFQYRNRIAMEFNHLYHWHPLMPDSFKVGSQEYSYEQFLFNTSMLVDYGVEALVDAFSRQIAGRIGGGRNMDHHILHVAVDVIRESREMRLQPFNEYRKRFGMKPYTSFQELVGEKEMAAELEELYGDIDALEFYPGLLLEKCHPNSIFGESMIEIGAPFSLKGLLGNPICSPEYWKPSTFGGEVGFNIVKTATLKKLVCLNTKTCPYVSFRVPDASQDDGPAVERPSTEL

reduction of COX-1 enzyme activity (COX-1 enzyme)	reduction of COX-2 enzyme activity (COX-2 enzyme)	SMILES	decrease of TNF-α (TNF-α)	decrease of IL-6 (IL-6)	decrease in Disease Activity Index (mice)
–	–	COc1cc(C2SCCCS2)ccc1OC(=O)/C=C/c1ccccc1 [compound 2, 4-(1,3-dithian-2-yl)-2-methoxyphenyl cinnamate]	26%	–	–
38%	45%	CC/C=C\CC(=O)Oc1ccc(Br)cc1C1SCCCS1 [compound 1, (Z)-4-bromo-2-(1,3-dithian-2-yl)phenyl hex-3-enoate]	53%	19%	23%
